These results are taken from a melting point compilation (Tetko et al.; mined from patent text by program, amines drawn as free bases though some values may be those of a salt).

Molecules are shown by their SMILES.

For orientation: melting point means the temperature of the solid-liquid transition. As for `CC(C(=O)O)c1cccc2c1Oc1ccccc1CC2=O` (stereo unspecified), the melting point is 159 to 160 °C.
For `COC(=O)c1ccc(OCCN)cc1`, the melting point was in the range of 53 to 55.5 °C.
Then `CCOC(=O)c1c(N(C(C)=O)C(C)=O)c2cccnc2n(CC)c1=O`, with 133 to 135 °C; and `CC(=O)N1Cc2c(-c3noc(C4CC4)n3)ncn2-c2cccc(F)c21`, with 208 to 210 °C; and `CS(=O)(=O)c1ccc(/C(=C\C2CCCCCC2)C(=O)O)cc1`, with 164 to 166 °C.
As to `Cc1nc(C(N)=O)c2n1-c1ccc(Cl)cc1C(c1ccccc1F)=NC2`, the melting point was in the range of 300 to 305 °C.
Then `CCOC(=O)c1cc2ccccc2[nH]c1=O`, with 160 to 163 °C; and `COc1cc2c(cc1C(F)(F)F)N(C(=O)Nc1ccc(-c3ccccn3)s1)CC2`, with 205 to 215 °C.
Then `Cc1noc(C)c1C(=O)Nc1ccc(-n2nc(C(F)(F)F)cc2C(F)(F)F)c(C(F)(F)F)c1`, with 61 to 63 °C; and `Clc1ccc(N2CCN(Cc3n[nH]c4c(Cl)cccc34)CC2)cc1`, with 152 to 154 °C.
Then `CC(Oc1ncn(-c2ccc(C(F)(F)F)cc2)n1)C(=O)NC1CC1` (stereo unspecified), with 175 to 177 °C; and `c1ccc(-c2cnc3ncnn3c2)cc1`, with 164 to 167 °C.
For `Cc1oc(-c2ccccc2)nc1COc1ccc2oc(CCCC#N)cc2c1`, the melting point fell in the range of 114 to 115 °C.
On to `CC12CCC(C(=NO)C1=O)C(C)(C)O2` (stereo unspecified), for which the melting point was in the range of 158 to 159 °C.
The compound `CSC(=O)c1c(C(F)F)nc(C(F)(F)F)c(C(=O)SC)c1NC(C)C` had a melting point of 92 to 94 °C.
Then `NS(=O)(=O)c1cc(CCNC(=O)/C=C/c2cccs2)ccc1OCCOC(F)(F)F`, with 203 to 205 °C; and `Cc1ccc(C(F)(F)F)cc1[N+](=O)[O-]`, with 31 to 33 °C.
Then `Clc1ccc(OCc2ccc(Cl)s2)cc1`, with 48 to 49 °C; and `COc1ccc(N2CCN(c3c(C)c(C)c4c(c3C)C(O)(c3ccc(F)cc3)C(C)(C)O4)CC2)cc1` (stereo unspecified), with 142 to 144 °C.
Then `Cc1ccc(C2CCN(C(=O)Nc3ccc4cc(CN5CCCCC5)ccc4c3)CC2)cc1`, with 227 to 228 °C; and `COC(=O)C1=C(N(c2ccccc2)c2ccccc2)CC(C(=O)OC)=C(N(c2ccccc2)c2ccccc2)C1`, with 236 to 238 °C; and `Cc1cc(I)cc2[nH]c(=O)oc12`, with 248 to 250 °C.
In the case of `CNc1ccccc1-c1nc2ncccc2[nH]1`, the melting point was in the range of 262 to 263 °C.
`CN(C)C=CC(=O)c1c[nH]c2ccccc12` came in with a melting point of 239 to 245 °C.
Then `COc1cc2c(c(C(C)C)c1OC)C(=O)N(CSc1nnnn1-c1ccccc1)S2(=O)=O`, with 69 to 71 °C; and `CCc1nn2c(O)cc(O)nc2c1S(=O)(=O)c1ccccc1`, with > 230 °C.
Then `O=S(=O)(CC(F)(F)F)NC(c1ccc(Cl)c2nc3n(c12)CCCN3c1c(Cl)cc(Cl)cc1Cl)C(F)(F)F` (stereo unspecified), with 237 to 239 °C.
Then `Cc1ccc(-c2cc3cc(C(=O)O)ccc3o2)cc1`, with 279 to 283 °C; and `CCOC(=O)c1sc(-n2ccc(OC)cc2=O)nc1C`, with 163 to 165 °C; and `NC(=O)c1cc(=O)c2c(o1)c1ccccc1n2-c1ccccc1`, with 263 to 265 °C.
Consider `COC(=O)c1sc(OC)c(C)c1O`, for which the melting point fell in the range of 63 to 65 °C.
The compound `COc1cc(C)c(C(=O)c2c(O)ccc(Br)c2C)c(OC)c1OC` returned a melting point of 119 to 120 °C.
With `CC#Cc1[nH]c(=O)n2c1CN(C)Cc1cc(F)ccc1-2`, the melting point was 219 to 220 °C.
Then `CC(=O)Oc1c(C2CCN(CCCCNC(=O)c3ccc(-c4ccc(C#N)cc4)cc3)CC2)ccc2c1CCCC2`, with 140 to 150 °C.
`C=CCN(CCC)S(=O)(=O)NC(=O)c1cc(N=C=S)c(F)cc1Cl` had a melting point of 83 to 85 °C.
Then `CCNC(=O)n1nc(Oc2c(Cl)cc(C(F)(F)F)cc2Cl)cc1C`, with 80 to 82 °C; and `CC(C)N(CCOc1ccc(CC2SC(=O)NC2=O)cc1)C(C)C` (stereo unspecified), with 134 to 135 °C.
`O=C(c1cc(Br)c(O)c(Br)c1)c1c(CCc2ccccc2)oc2ccccc12` registered a melting point of 153 to 154 °C.
Then `CS(=O)(=O)c1ccc(-c2cnn(CCc3ccccc3)c(=O)c2-c2ccc(F)cc2)cc1`, with 170 to 171 °C; and `COc1cc(N)c(Cl)cc1C(=O)NN1CCN2CCCCC2C1` (stereo unspecified), with 118 to 119 °C.
The compound `CCOC(=O)CN[C@@H](c1ccccc1)[C@H](O)c1ccccc1` registered a melting point of 126 to 127 °C.
Then `CSc1nn2c(N3CCN(C)CC3)cc(C)nc2c1S(=O)(=O)c1ccc(C(C)C)cc1`, with > 230 °C.
For the compound `CN(C)CCSc1c2ccccc2c(-c2cc(Br)c(O[C@H](Cc3ccccc3)C(=O)O)c(Br)c2)c2c1sc1ccccc12`, the melting point lay in the range of 169 to 174 °C.
For `CCCOC(=O)C=Nc1cc(Cl)ccc1C(=O)O`, the melting point was 155 °C.
Then `CC1CC(=O)NN=C1c1ccc(-n2cncn2)nc1` (stereo unspecified), with 256 to 257 °C; and `Cc1cccc(-c2nc3cnccc3[nH]2)c1`, with 202 to 204 °C; and `O=Cc1cncn1-c1ccc(F)cc1`, with 131 to 133 °C.
Then `O=C(O)c1ccc(C(c2ccc(C(=O)O)cc2)(c2ccc(C(=O)O)cc2)C(F)(F)F)cc1`, with 366 to 367 °C.
Then `OCc1csc(NCc2ccccc2)n1`, with 85 to 86.5 °C; and `Nc1nc(Cl)c2ccccc2n1`, with 275 to 278 °C.
Turning to `C=CCOC(=O)C(C(=O)NC1C(=O)N2C1SC(C)(C)C2C(=O)OCC=C)=C1SCCS1` (stereo unspecified), the melting point fell in the range of 76 to 77 °C.
As for `COC(=O)C(SC)c1ccc(N2C(=O)c3ccccc3C2=O)cc1` (stereo unspecified), the melting point was 168 to 169 °C.
Turning to `COc1cc2oc(=O)c(CCN3CCN(c4ccccc4)CC3)c(C)c2c(OC)c1OC`, the melting point was in the range of 136 to 137 °C.
For the compound `CN1C(=O)c2cccc(S(=O)(=O)Cl)c2C1=O`, the melting point was in the range of 159 to 162 °C.
Compound `N#Cc1cnc2cc(/C=C/CN3CCOCC3)ccc2c1Nc1ccc(Cl)cc1Cl` displayed a melting point of 175 to 176 °C.
Then `O=C(NCc1ccncc1)c1[nH]c2ccc(Cl)cc2c1S(=O)c1ccccc1` (stereo unspecified), with 233 to 235 °C; and `Cc1ccc(I)c(CO)c1`, with 82 to 85 °C.
`Cc1nc2ccccc2n2c(-c3cc(OCC(F)c4ccccn4)ccc3Cl)nnc12` (stereo unspecified) showed a melting point of 155 to 157 °C.
Then `CC(OCc1cc2cc(C(F)(F)F)ccc2n1S(=O)(=O)c1ccc2c(c1)OCCO2)C(=O)O` (stereo unspecified), with 70 °C; and `O=C(Cl)N(c1ccc(F)cc1)c1ccc(F)cc1`, with 53 to 54 °C.
The compound `COC(=N)c1ncn(C2OC(CO)C(O)C2O)n1` (stereo unspecified) yielded a melting point of 150 to 153 °C.
`CNC(=O)C(Cc1ccc(OC)cc1)NC(=O)C(CC(C)C)C(S)CC(=O)NCC(=O)O` (stereo unspecified) had a melting point of 228 to 231 °C.
Then `Cc1sc(N)c(C#N)c1Cl`, with 158 °C.
Then `COc1cc(/C(C#N)=C/c2ccc(Cl)c([N+](=O)[O-])c2)cc(OC)c1OC`, with 198 to 199 °C.
The compound `CC(C)c1ccc(S(=O)(=O)Nc2cnc(Cl)cc2I)cc1` registered a melting point of 160 °C.
Then `CN(C)Nc1cc(Oc2nn(C)c(C(F)(F)F)c2Cl)ccc1[N+](=O)[O-]`, with 72 to 76 °C.
In turn, `CCOC(=O)c1ccc(N=C(Nc2ccc(C(=O)OCC)cc2)c2ccc(C)cc2)cc1` yielded a melting point of 246 to 260 °C.
Then `COc1cccc(C(=O)c2sc(NC(=O)c3ccncc3)nc2-c2ccco2)n1`, with 247 to 250 °C.
Then `Nc1nc2ccc(Cc3ccccc3)cc2s1`, with 173 to 175 °C; and `CCc1nc2c(N)nc3ccccc3c2n1CC1(O)CCOCC1`, with > 250 °C; and `Cc1ccc(C(=O)c2cnn3c(-c4cccnc4)ccnc23)cc1`, with 203 to 204 °C.
`O=c1c2ccccc2c(-c2ccc(Cl)cc2)nn1CCc1ccncc1` gave a melting point of 142 to 144 °C.
Then `CC(C)(C)OC(=O)Cn1c(=O)n(S(=O)(=O)c2ccc(Cl)cc2)c(=O)c2ccc(Cl)cc21`, with 188 to 190 °C.
The compound `O=C(O)c1cccc(Oc2ccnc(Cl)c2)n1` yielded a melting point of 183 °C.
Then `COc1ccc2c(c1)CNCC(=O)N2`, with 148 °C; and `CC1=CCC(C(=O)O)CC1` (stereo unspecified), with 95 °C; and `Nc1ccc2oc(=O)c(N)cc2c1`, with 183 to 186 °C.
Then `CC(C)C(O)c1cc2ccncc2[nH]1` (stereo unspecified), with 140 to 144 °C; and `Cc1nc(C(F)(F)F)ccc1C(=O)C1=C(O)C2CCC(C2)C1=O` (stereo unspecified), with 75 to 77 °C; and `COC1CCN(c2nnc(-c3ccc(C)cc3)c(-c3ccc(C)cc3)n2)CC1`, with 120 to 121 °C.
Then `Cc1cccc2c1nc(COc1ccc(Cl)cc1)n2CCC(Cc1ccccc1)C(=O)NCCCN1CCCCC1` (stereo unspecified), with 91 to 93 °C.
For the compound `CCOC(=O)[C@H](Cc1cccc(Oc2ccc3ccccc3c2)c1)NC(=O)C(F)(F)F`, the melting point was 78 to 80 °C.
Regarding `CN(C)C(=O)C1(N2C(=O)c3cccc(Cl)c3C2=O)CCCCC1`, the melting point fell in the range of 135 to 137 °C.
`CCCc1nc2c(N)nc3cccnc3c2n1CC1(O)CCOC1` (stereo unspecified) returned a melting point of 171 to 173 °C.
As to `Cc1ccc(S(=O)(=O)N2CC[C@@H](C)[C@@H]2c2ccc(F)cc2)cc1` (racemic), the melting point worked out at 112 °C.
Then `CCCN(CCC)C(=O)C1Cc2ccccc2N1c1nc(-c2ccccc2)nc(C)c1C` (stereo unspecified), with 167 to 168 °C.
Turning to `CNC(=S)NN=C(CCCCl)c1cccnc1`, the melting point lay within 100 to 102 °C.
For the compound `CCOc1ccc(NC(=O)C(C)(C)O)cc1`, the melting point was in the range of 146 to 148 °C.
For `Cc1ccc(N(C)C(=O)CN(C(=O)CNC(=O)Nc2cccc(C)c2)c2ccccc2)cc1`, the melting point is 162 °C.
Then `COC1(C#Cc2ncn3c2CN(C)C(=O)c2c(Cl)cccc2-3)CCCC1`, with 174 to 175 °C; and `O=C(NCCSSCCNC(=O)c1ccc(OC(F)(F)F)cc1)c1ccc(OC(F)(F)F)cc1`, with 150 to 151 °C.
